Data published in PMC2228077, “The bioavailability of oral GI147211 (GG211), a new topoisomerase I inhibitor” (British Journal of Cancer, 1997).
Several values for one entry are separate records, joined by “and”; a condition that tells them apart may be missing. Equal entries are not always repeated. Structures can show the parent of a compound that is named as a salt.

Test: Plasma pharmacokinetics and absolute bioavailability, oral day 1 vs 30-min i.v. infusion day 2, patients with solid tumours
Parameters: mean maximal plasma concentration (Cmax) after intravenous dosing: dose or concentration left out as unconfirmed
Excerpt: British Journal of Cancer (1997) 76(7), 946-951 ? 1997 Cancer Research Campaign The bloavailability of oral Gil 47211 (GG21 1), a new topoisomerase I inhibitor CJH Gerrits', JHM Schellens', GJ Creemers', P Wissel2, ASTh Planting', JF Pritchard2, S DePee2, M de Boer-Dennert', M Harteveld' and J Verweij' 'Department of Medical Oncology, Rotterdam Cancer Institute (Daniel den Hoed Kliniek) and University Hospital, The Netherlands; 2Glaxo Wellcome, Department of Pharmacokinetics, NC, USA Summary Topoisomerase I inhibitors are new compounds of interest for cancer chemotherapy. We performed a study with Gl147211, a new semisynthetic camptothecin analogue, to determine the absolute bioavailability of the drug given orally. […] Gi147211 was given orally on day 1 and as a 30-min infusion daily on days 2-5. The treatment course was repeated every 3 weeks. In subsequent patient cohorts, the dose of the oral formulation was escalated from 1.5 mg m-2 to 6.0 mg m-2; the dose for i.v. administration was fixed at 1.2 mg m-2. Plasma pharmacokinetics was performed on day 1 and 2 of the first course and on day 1 of the second course using a validated high-performance liquid chromatographic assay. […] Keywords: G1147211 (GG211); bioavailability; topoisomerase I inhibitor; phase I study G1147211 [7-(methylpiperazinomethylene)-10,11-ethylenedioxy- 20(S)-camptothecin dihydrochloride] is a water-soluble semisyn- thetic analogue of camptothecin (CPT). […] Its further development was stopped because of unpredictable and severe myelosuppression, gastro- intestinal toxicity and haemorrhagic cystitis (Gottlieb et al, 1970; Creaven et al, 1972; Muggia et al, 1972). Interest in CPT was renewed in the 1980s, because topoiso- merase I was identified as the single cellular target of CPT (Hsiang et al, 1988 1989), and an overexpression of topoisomerase I was found in various tumour cell lines but not in normal tissues (Giovanella et al, 1989; Hirabayashi et al, 1992). Topoisomerase I is a nuclear enzyme that resolves topological problems of the torsionally strained (supercoiled) DNA by forming a covalent adduct between topoisomerase I and the DNA, termed the cleav- able complex. This catalytic intermediate creates single-strand DNA breaks, allowing the DNA molecule to rotate around the intact DNA strand at the cleavage site, leading to a relaxation of Received 29 November 1996 Revised 27 March 1997 Accepted 1 April 1997 Correspondence to: CJH Gerrits, Department of Medical Oncology, Rotterdam Cancer Institute, (Daniel den Hoed Kliniek) and University Hospital, Groene Hilledijk 301, 3075 EA Rotterdam, The Netherlands the DNA molecule, and in this way replication, transcription and other DNA functions can proceed. These enzyme-bridged breaks are then resealed by topoisomerase I (Champoux, 1976; Muller, 1985; Muller et al, 1985; Camilloni et al, 1989). […] It has been documented that camptothecin (CPT) interferes with the breakage-reunion process of topoiso- merase I by stabilizing the enzyme-DNA cleavable complexes (Liu et al, 1989).

[1] = individual patients 1-19, i.v. 1.2 mg m-2, Table 3
[2] = individual patients, oral 6 mg m-2, Fed (after breakfast), Tables 3 and 4
[3] = individual patients, oral 6 mg m-2, fasted, Table 3
[4] = oral 6.0 mg m-2, lactone, Table 4

CC[C@@]1(O)C(=O)OCc2c1cc1n(c2=O)Cc2c-1nc1cc3c(cc1c2CN1CCN(C)CC1)OCCO3 [GI147211, 7-(methylpiperazinomethylene)-10,11-ethylenedioxy-20(S)-camptothecin dihydrochloride]
Oral AUC total, mean (all oral doses 1.5-6 mg m-2, total = lactone plus acid, Table 3): 36.33 ng·h/mL | intrapatient variability of the absolute bioavailability, median (course 1 vs course 2): 31% | intrapatient variability of the absolute bioavailability, range (course 1 vs course 2): 3-88% | absolute bioavailability, range between patients (human, in vivo): 4.8-24.3% | mean maximal plasma concentration (Cmax) after intravenous dosing (human, in vivo): 21.76 ng/mL | i.v. AUC, mean (human, in vivo, iv, 1.2 mg): 31.84 ng·h/mL | cases with Tmax < 0.5 h (human, in vivo, po): 13 of 19 | dose dependence of oral bioavailability (human, in vivo, po): not dose dependent | median Tmax (human, in vivo, po): 0.5 h | terminal half-life after oral administration (lactone), range (human, in vivo, po): 2.0 to 13.0 h | Oral Tmax (human, in vivo, po, 1.5 mg): 0.25 h | Absolute bioavailability fasted, mean (human, in vivo, po, 6 mg): 11.4% | Absolute bioavailability fed, mean (human, in vivo, po, 6 mg): 11.2% | Oral Tmax fasted, mean (human, in vivo, po, 6 mg): 0.65 h | Oral Tmax fed, mean (human, in vivo, po, 6 mg): 0.69 h | influence of fasting or fed state on bioavailability (human, in vivo, po, 6 mg): no significant influence | influence of fed or fasted state on Tmax (human, in vivo, po, 6 mg): not significantly influenced | mean maximal plasma concentration (Cmax) after oral dosing (human, in vivo, po, 6 mg): 4.02 ? 3.57 ng ml-1 | i.v. t1/2, mean (i.v. 1.2 mg m-2, 13 patients of 6.0 mg m-2 level, Table 4): 8.53 h | Oral AUC total (individual patient 18, oral 6 mg m-2, Fed, lactone plus acid, Table 3): 14.69 ng·h/mL | i.v. AUC [1]: 19.11 ng·h/mL | i.v. t1/2 [1]: 6.2 h (2×) and 6.0 h and 14.3 h and 5.6 h and 6.7 h and 7.0 h and 5.2 h and 9.5 h and 10.9 h and 10.5 h and 8.9 h and 6.8 h and 4.5 h and 18.6 h and 14.6 h and 7.2 h and 1.9 h and 4.9 h | Oral t1/2 (individual patients, oral 1.5 mg m-2, Table 3): 2.5 h and 4.0 h | Oral AUC total (individual patients, oral 1.5 mg m-2, lactone plus acid, Table 3): 3.12 ng·h/mL and 11.16 ng·h/mL | Oral t1/2 (individual patients, oral 3 mg m-2, Table 3): 12.2 h and 7.7 h and 9.5 h and 5.1 h | Oral AUC total (individual patients, oral 3 mg m-2, lactone plus acid, Table 3): 70.82 ng·h/mL and 12.81 ng·h/mL and 15.21 ng·h/mL and 24.05 ng·h/mL | Oral t1/2 (individual patients, oral 3 mg m-2, second course (C2), Table 3): 2.0 h and 11.7 h | Absolute bioavailability Lactone [2]: 10.5% and 11.9% | Oral t1/2 [2]: 8.7 h and 6.0 h (2×) and 8.2 h and 11.1 h and 11.9 h and 4.1 h and 3.4 h and 3.5 h | Absolute bioavailability Lactone [3]: 11.1% | Absolute bioavailability Total [3]: 11.1% | Oral t1/2 [3]: 4.2 h and 4.5 h and 4.3 h (2×) and 6.1 h and 10.4 h and 9.7 h and 7.8 h and 6.2 h and 13.0 h and 6.7 h and 5.0 h and 3.7 h | Oral AUC total (individual patients, oral 6 mg m-2, fasted, lactone plus acid, Table 3): 157.68 ng·h/mL and 30.60 ng·h/mL and 36.73 ng·h/mL and 39.35 ng·h/mL and 55.59 ng·h/mL and 27.76 ng·h/mL and 13.89 ng·h/mL and 28.78 ng·h/mL and 30.71 ng·h/mL and 40.52 ng·h/mL and 40.50 ng·h/mL | Oral t1/2 (individual patients, oral 6 mg m-2, second course (C2), Table 3): 7.8 h and 7.2 h | courses in which plasma concentrations could be measured at 24 h (oral): 21 % of courses | courses in which plasma concentration-time curves could be measured up to 12 h (oral 6.0 mg m-2, lactone and total): 68 % of courses | Oral t1/2 fasted, mean [4]: 6.61 h | Oral t1/2 fed, mean [4]: 6.84 h
